Measurements taken from PubChem BioAssay (NCI).
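Results reflect a 48-hour exposure of cells in 96-well plates to compound at five concentrations. GI50: concentration for 50% inhibition of growth. TGI marks complete inhibition of growth.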

Key:
Assay in all cases: growth of human tumour cells (NCI), 48 h
786-0 renal = tested on: 786-0 renal
RPMI-8226 leukemia = tested on: RPMI-8226 leukemia
SR leukemia = tested on: SR leukemia
MOLT-4 leukemia = tested on: MOLT-4 leukemia
NCI-H460 lung = tested on: NCI-H460 lung
SNB-75 CNS = tested on: SNB-75 CNS
OVCAR-5 ovarian = tested on: OVCAR-5 ovarian
PC-3 prostate = tested on: PC-3 prostate
OVCAR-4 ovarian = tested on: OVCAR-4 ovarian
LOX IMVI melanoma = tested on: LOX IMVI melanoma
CAKI-1 renal = tested on: CAKI-1 renal
NCI-H522 lung = tested on: NCI-H522 lung
SF-539 CNS = tested on: SF-539 CNS
HOP-62 NSCLC = tested on: HOP-62 NSCLC
HCT-116 colon = tested on: HCT-116 colon
SF-268 CNS = tested on: SF-268 CNS
NCI/ADR-RES ovarian = tested on: NCI/ADR-RES ovarian
A549 NSCLC = tested on: A549 NSCLC
EKVX NSCLC = tested on: EKVX NSCLC
NCI-H23 lung = tested on: NCI-H23 lung
HCC-2998 colon = tested on: HCC-2998 colon
CCRF-CEM leukemia = tested on: CCRF-CEM leukemia
DU-145 prostate = tested on: DU-145 prostate
MDA-MB-231 breast = tested on: MDA-MB-231 breast
OVCAR-3 ovarian = tested on: OVCAR-3 ovarian
U251 CNS = tested on: U251 CNS
T-47D breast = tested on: T-47D breast
BT-549 breast = tested on: BT-549 breast
KM12 colon = tested on: KM12 colon

Q: What does the source list for `CCCn1cnc2c(c1=N)C(c1ccc(OC)cc1)c1sc3c(C)cccc3c1O2` (stereo unspecified)?
A: GI50 (786-0 renal): 523 nM; TGI (786-0 renal): 14400 nM; GI50 (RPMI-8226 leukemia): 369 nM; TGI (RPMI-8226 leukemia): 4450 nM; GI50 (SR leukemia): 349 nM; GI50 (MOLT-4 leukemia): 569 nM; TGI (MOLT-4 leukemia): 12700 nM; GI50 (NCI-H460 lung): 381 nM; TGI (NCI-H460 lung): 10500 nM; GI50 (SNB-75 CNS): 209 nM; TGI (SNB-75 CNS): 1700 nM; GI50 (OVCAR-5 ovarian): 1160 nM; TGI (OVCAR-5 ovarian): 15000 nM; GI50 (PC-3 prostate): 415 nM; TGI (PC-3 prostate): 16000 nM; GI50 (OVCAR-4 ovarian): 1610 nM; TGI (OVCAR-4 ovarian): 20700 nM; GI50 (LOX IMVI melanoma): 656 nM; TGI (LOX IMVI melanoma): 12300 nM; GI50 (CAKI-1 renal): 208 nM; TGI (CAKI-1 renal): 15000 nM; GI50 (NCI-H522 lung): 409 nM; TGI (NCI-H522 lung): 7590 nM; GI50 (SF-539 CNS): 301 nM; TGI (SF-539 CNS): 1270 nM; GI50 (HOP-62 NSCLC): 406 nM; TGI (HOP-62 NSCLC): 16700 nM; GI50 (HCT-116 colon): 400 nM; TGI (HCT-116 colon): 10900 nM; GI50 (SF-268 CNS): 787 nM; TGI (SF-268 CNS): 14900 nM; GI50 (NCI/ADR-RES ovarian): 359 nM; TGI (NCI/ADR-RES ovarian): 12400 nM; GI50 (A549 NSCLC): 717 nM; TGI (A549 NSCLC): 18100 nM; GI50 (EKVX NSCLC): 598 nM; TGI (EKVX NSCLC): 20400 nM; GI50 (NCI-H23 lung): 535 nM; TGI (NCI-H23 lung): 14200 nM; GI50 (HCC-2998 colon): 886 nM; TGI (HCC-2998 colon): 4910 nM; GI50 (CCRF-CEM leukemia): 355 nM; GI50 (DU-145 prostate): 453 nM; TGI (DU-145 prostate): 15200 nM; GI50 (MDA-MB-231 breast): 1150 nM; TGI (MDA-MB-231 breast): 15900 nM; GI50 (OVCAR-3 ovarian): 379 nM; TGI (OVCAR-3 ovarian): 5920 nM; GI50 (U251 CNS): 445 nM; TGI (U251 CNS): 12900 nM; GI50 (T-47D breast): 527 nM; TGI (T-47D breast): 30400 nM; GI50 (BT-549 breast): 1350 nM; TGI (BT-549 breast): 12700 nM; GI50 (KM12 colon): 474 nM; TGI (KM12 colon): 12000 nM
